Data published in US20230250066A1, “HERBICIDAL CINNOLINE DERIVATIVES” (SYNGENTA CROP PROTECTION AG, priority 2020, published 2023).

Columns and labels:
Format in all cases: in vivo
[1] = system: Amaranthus retoflexus (AMARE); experiment: Pre-emergence herbicidal test; details: 1000 g/ha, evaluated after 13 days
[2] = system: Setaria faberi (SETFA); experiment: Pre-emergence herbicidal test; details: 1000 g/ha, evaluated after 13 days
[3] = system: Echinochloa crus-galli (ECHCG); experiment: Pre-emergence herbicidal test; details: 1000 g/ha, evaluated after 13 days
[4] = system: Ipomoea hederacea (IPOHE); experiment: Pre-emergence herbicidal test; details: 1000 g/ha, evaluated after 13 days
[5] = system: Abutilon theophrasti (ABUTH); experiment: Pre-emergence herbicidal test; details: 1000 g/ha, evaluated after 13 days
[6] = system: Zea mays (ZEAMX); experiment: Pre-emergence herbicidal test; details: 1000 g/ha, evaluated after 13 days
[7] = system: Abutilon theophrasti (ABUTH); experiment: Post-emergence herbicidal test; details: 1000 g/ha unless otherwise stated, evaluated after 13 days
Method: (§1) Seeds of a variety of test species are sown in standard soil in pots (Amaranthus retoflexus (AMARE), Solanum nigrum (SOLNI), Setaria faberi (SETFA), Lolium perenne (LOLPE), Echinochloa crus-galli (ECHCG), Ipomoea hederacea (IPOHE), Abutilon theophrasti (ABUTH), Zea mays (ZEAMX)). After 8 days cultivation under controlled conditions in a glasshouse (at 24° C./16° C., day/night; 14 hours light; 65% humidity), the plants are sprayed with an aqueous spray solution derived from the formulation of the technical active ingredient in acetone/water (50:50) solution containing 0.5% Tween 20 (polyoxyethelyene sorbitan monolaurate, CAS RN 9005-64-5). Compounds are applied at 1000 g/ha unless otherwise stated. The test plants are then grown in a glasshouse under controlled conditions in a glasshouse (at 24° C./16° C., day/night; 14 hours light; 65% humidity) and watered twice daily. After 13 days the test is evaluated for the percentage damage caused to the plant. The biological activities are shown in the following table on a five-point scale (5=81-100%; 4=61-80%; 3=41-60%; 2=21-40%; 1=10-20%; 0=0%;−=not tested).

[8] = system: Amaranthus retoflexus (AMARE); experiment: Post-emergence herbicidal test; details: 1000 g/ha unless otherwise stated, evaluated after 13 days
Method: as §1

[9] = system: Echinochloa crus-galli (ECHCG); experiment: Post-emergence herbicidal test; details: 1000 g/ha unless otherwise stated, evaluated after 13 days
Method: as §1

[10] = system: Ipomoea hederacea (IPOHE); experiment: Post-emergence herbicidal test; details: 1000 g/ha unless otherwise stated, evaluated after 13 days
Method: as §1

[11] = system: Setaria faberi (SETFA); experiment: Post-emergence herbicidal test; details: 1000 g/ha unless otherwise stated, evaluated after 13 days
Method: as §1

[12] = system: Zea mays (ZEAMX); experiment: Post-emergence herbicidal test; details: 1000 g/ha unless otherwise stated, evaluated after 13 days
Method: as §1

SMILES | percentage damage caused to the plant, five-point scale, AMARE [1] | percentage damage caused to the plant, five-point scale, SETFA [2] | percentage damage caused to the plant, five-point scale, ECHCG [3] | percentage damage caused to the plant, five-point scale, IPOHE [4] | percentage damage caused to the plant, five-point scale, ABUTH [5] | percentage damage caused to the plant, five-point scale, ZEAMX [6] | percentage damage caused to the plant, ABUTH (five-point scale) [7] | percentage damage caused to the plant, AMARE (five-point scale) [8] | percentage damage caused to the plant, ECHCG (five-point scale) [9] | percentage damage caused to the plant, IPOHE (five-point scale) [10] | percentage damage caused to the plant, SETFA (five-point scale) [11] | percentage damage caused to the plant, ZEAMX (five-point scale) [12]
CS(=O)(=O)c1cccc2c1c(=O)c(C(=O)OCCCCOCc1ccccc1)nn2-c1ccc(OC(F)(F)F)cc1 [Compound P89, 4-benzyloxybutyl 5-methylsulfonyl-4-oxo-1-[4-(trifluoromethoxy)phenyl]cinnoline-3-carboxylate] | 0 (0=0%) | 4 (4=61-80%) | 4 (4=61-80%) | 0 (0=0%) | 0 (0=0%) | 0 (0=0%) | 0 (0=0%) | 0 (0=0%) | 3 (3=41-60%) | 0 (0=0%) | 4 (4=61-80%) | 0 (0=0%)
CC(C)CCSC(=O)c1nn(-c2ccc(OC(F)(F)F)cc2)c2cccc(S(C)(=O)=O)c2c1=O [Compound P91, S-isopentyl 5-methylsulfonyl-4-oxo-1-[4-(trifluoromethoxy)phenyl]cinnoline-3-carbothioate] | 0 (0=0%) | 4 (4=61-80%) | 3 (3=41-60%) | 0 (0=0%) | 0 (0=0%) | 0 (0=0%) | 1 (1=10-20%) | 0 (0=0%) | 3 (3=41-60%) | 1 (1=10-20%) | 4 (4=61-80%) | 1 (1=10-20%)
CCCCCOC(=O)c1nn(-c2ccc(OC(F)(F)F)cc2)c2cccc(S(C)(=O)=O)c2c1=O [Compound P75, penyl 5-methylsulfonyl-4-oxo-1-[4-(trifluoromethoxy)phenyl]cinnoline-3-carboxylate] | 0 (0=0%) | 4 (4=61-80%) | 4 (4=61-80%) | 0 (0=0%) | 0 (0=0%) | 1 (1=10-20%) | 0 (0=0%) | 0 (0=0%) | 3 (3=41-60%) | 0 (0=0%) | 4 (4=61-80%) | 0 (0=0%)
CS(=O)(=O)c1cccc2c1c(=O)c(C(=O)O)nn2-c1ccc(Cl)cc1F [Compound P41, 1-(4-chloro-2-fluoro-phenyl)-5-methylsulfonyl-4-oxo-cinnoline-3-carboxylic acid] | 1 (1=10-20%) | 4 (4=61-80%) | 2 (2=21-40%) | 1 (1=10-20%) | 1 (1=10-20%) | 1 (1=10-20%) | 1 (1=10-20%) | 1 (1=10-20%) | 4 (4=61-80%) | 1 (1=10-20%) | 4 (4=61-80%) | 1 (1=10-20%)
CCCCCCCCSC(=O)c1nn(-c2ccc(OC(F)(F)F)cc2)c2cccc(S(C)(=O)=O)c2c1=O [Compound P90, S-octyl 5-methylsulfonyl-4-oxo-1-[4-(trifluoromethoxy)phenyl]cinnoline-3-carbothioate] | 0 (0=0%) | 4 (4=61-80%) | 3 (3=41-60%) | 0 (0=0%) | 0 (0=0%) | 0 (0=0%) | 0 (0=0%) | 0 (0=0%) | 3 (3=41-60%) | 1 (1=10-20%) | 4 (4=61-80%) | 1 (1=10-20%)
CS(=O)(=O)c1cccc2c1c(=O)c(C(=O)OCCCCCCCCCc1ccccc1)nn2-c1ccc(OC(F)(F)F)cc1 [Compound P83, 9-phenylnonyl 5-methylsulfonyl-4-oxo-1-[4-(trifluoromethoxy)phenyl]cinnoline-3-carboxylate] | 0 (0=0%) | 0 (0=0%) | 0 (0=0%) | 0 (0=0%) | 0 (0=0%) | 0 (0=0%) | 0 (0=0%) | 0 (0=0%) | 0 (0=0%) | 0 (0=0%) | 0 (0=0%) | 0 (0=0%)
O=C(O)c1nn(-c2ccc(OC(F)(F)F)cc2)c2cccc(SC3CC3)c2c1=O [Compound P30, 5-cyclopropylsulfanyl-4-oxo-1-[4-(trifluoromethoxy)phenyl]cinnoline-3-carboxylic acid] | 0 (0=0%) | 0 (0=0%) | 0 (0=0%) | 0 (0=0%) | 0 (0=0%) | 0 (0=0%) | 1 (1=10-20%) | 1 (1=10-20%) | 1 (1=10-20%) | 1 (1=10-20%) | 1 (1=10-20%) | 1 (1=10-20%)
CCOC(=O)c1nn(-c2ccc(OC(F)(F)F)cc2)c2cccc([S+]([O-])CC(F)(F)F)c2c1=O (stereo not drawn) [Compound P38, ethyl 4-oxo-5-(2,2,2-trifluoroethylsulfinyl)-1-[4-(trifluoromethoxy)phenyl]cinnoline-3-carboxylate] | 0 (0=0%) | 0 (0=0%) | 0 (0=0%) | 0 (0=0%) | 0 (0=0%) | 0 (0=0%) | 1 (1=10-20%) | 1 (1=10-20%) | 0 (0=0%) | 0 (0=0%) | 1 (1=10-20%) | 1 (1=10-20%)
COC(C)(C)CCOC(=O)c1nn(-c2ccc(OC(F)(F)F)cc2)c2cccc(S(C)(=O)=O)c2c1=O [Compound P85, (3-methoxy-3-methyl-butyl) 5-methysulfonyl-4-oxo-1-[4-(trifluoromethoxy)phenyl]cinnoline-3-carboxylate] | 0 (0=0%) | 4 (4=61-80%) | 4 (4=61-80%) | 0 (0=0%) | 0 (0=0%) | 0 (0=0%) | 1 (1=10-20%) | 1 (1=10-20%) | 3 (3=41-60%) | 0 (0=0%) | 4 (4=61-80%) | 1 (1=10-20%)
